# Measured values published in patent publication US9365534B2, “Arylated camphenes, processes for their preparation and uses thereof” (Yissum Research Development Company of the Hebrew …, priority 2009, dated 2016).
# Like-named read-outs stand apart in the source and are kept apart here.
# How the values were obtained:
# human CB2 receptor [1] = target: T1, human CB2 receptor (Homo sapiens (Human), UniProt P34972); assay: Membrane competition binding assay with [3H]-CP 55,940, CHO-CB2 membranes
# Text: (§1) The cDNA clones for human HA-tagged CB1 and CB2 receptors were obtained from the Missouri S&T cDNA Resource Center (www.cdna.org) in cloning vector pcDNA3.1+. The vector containing the human CB2 receptor was transfected directly into CHO-KI cells obtained from ATCC. The HA-tagged human CB1 receptor sequence was subcloned into the pef4-V5-HisA vector with Kpn1 and Pme1 restriction enzymes and subsequently transfected into CHO-K1 cells. Cells were clonally isolated by limited dilution and screened by immunocytochemistry for expression of the HA tag.
# (§2) Cells were maintained in DMEM/F12 media supplemented with 10% fetal bovine serum (FBS), 100 units/ml penicillin and 100 μg/ml streptomycin and 2 mM L-glutamine. Transfected cell lines were maintained with additional 150 ug/ml zeocin for pEF HA-CB1 transfected cells and 500 ug/ml G-418 for pcDNA HA-CB2 transfected cells (all reagents obtained from Invitrogen).
# (§3) Cells were grown to confluence and harvested in ice cold phosphate buffered saline with 5 mM EDTA. Cells were spun at 200×g for 10 min and frozen at −80° C. until required. Cell pellets were thawed with cold 0.32 M sucrose and homogenised with a glass homogeniser. The homogenate was spun at 1000×g for 10 min at 4° C. and the supernatant spun in a Sorvall ultracentrifuge for 30 min at 100,000×g. The pellet was then washed in ice cold water and re-spun twice more. The final pellet was resuspended in 50 mM Tris pH 7.5, 0.5 mM EDTA. Protein concentration was determined using the Dc protein assay kit (BioRad, Hercules, Calif., USA).
# (§4) Membranes (5-10 μg) were incubated with radioligand and a range of concentrations of test compounds in binding buffer (50 mM Tris pH 7.4, 5 mM MgCl2, 1 mM EDTA) with 0.5% (w/v) bovine serum albumin (BSA) (ICP Bio, New Zealand), at 30° C. for 60 min. Stock solutions of putative cannabinoid ligands were prepared in dimethyl sulfoxide to a concentration of 10 mM. Six different final concentrations of compounds were used ranging from 50 μM to 0.1 nM. […] Assays were terminated by addition of 2 ml ice cold binding buffer and filtration through GF/C filters (Whatman) pre-soaked in cold binding buffer, followed by two washes in the same buffer.
# (§5) Radioactivity was determined by incubation of filters with Irgasafe scintillation fluid (PerkinElmer) and scintillation counting in a Wallac Trilux using Microbeta Trilux software. Data was analysed using the Prism 4.02 programme (GraphPad Software, San Deigo, Calif., USA).
# (§6) All data was analyzed using Prism 4.02. For binding data the Ki was determined from IC50 values derived from competition binding data fitted with one site competition non-linear regression analysis by Prism 4.02 using the Kd values reported above.
# human CB1 receptor [2] = target: T2, human CB1 receptor (Homo sapiens (Human), UniProt P21554); assay: Membrane competition binding assay with [3H]-CP 55,940, CHO-CB1 membranes
# T2 sequence (P21554 whole entry): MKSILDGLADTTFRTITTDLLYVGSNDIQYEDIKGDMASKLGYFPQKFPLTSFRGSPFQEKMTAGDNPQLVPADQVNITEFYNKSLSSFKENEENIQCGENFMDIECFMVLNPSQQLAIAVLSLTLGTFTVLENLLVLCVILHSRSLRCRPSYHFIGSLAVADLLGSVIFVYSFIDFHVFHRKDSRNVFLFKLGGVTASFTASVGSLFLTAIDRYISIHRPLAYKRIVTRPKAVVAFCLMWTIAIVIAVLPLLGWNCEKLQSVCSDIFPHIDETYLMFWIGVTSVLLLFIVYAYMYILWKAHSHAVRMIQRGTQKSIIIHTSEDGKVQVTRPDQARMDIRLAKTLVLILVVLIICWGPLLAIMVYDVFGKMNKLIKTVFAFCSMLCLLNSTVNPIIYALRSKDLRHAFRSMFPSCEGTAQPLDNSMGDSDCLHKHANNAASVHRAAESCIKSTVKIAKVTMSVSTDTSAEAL
# Text: as §1, §2, §3, §4, §5, §6
# human CB2 receptor [3] = target: T1, human CB2 receptor; assay: cell-based
# Text: as §1, §2
# (§7) Cells were seeded at a density of 10,000 cells per well in poly-L-lysine treated 96-well culture plates (BD Biosciences). The following day wells were incubated with 40 μl DMEM/F12 containing 0.5% (w/v) BSA and 0.5 mM 3-isobutyl-1-methylxanthine (Sigma-Aldrich) for 30 minutes prior to 15 min stimulation with 50 μM forskolin (Tocris Cookson) and varying concentrations of indicated compounds at 37° C., 5% CO2. Assays were stopped by removal of media and addition of 100% ice cold ethanol. Plates were then frozen for a minimum of two hours before complete evaporation of ethanol. The well contents were then reconstituted in 50 μl cAMP assay buffer (20 mM HEPES pH 7.5 and 5 mM EDTA). Half of the reconstituted sample was transferred to round bottom 96-well plates (Greiner Bio-One GmbH) with 50 μl 0.01% w/v PKA (cAMP dependent protein kinase (Sigma-Aldrich) in 1 mM Na citrate pH 6.5 with 2 mM dithiothreitol) and 25 μl [^3H]-cAMP (at 22 nM in cAMP assay buffer) (GE Healthcare, Life Sciences). This was allowed to equilibrate for 3-18 hours. Following this a charcoal slurry (5% (w/v) activated charcoal and 0.2% (w/v) BSA in cAMP assay buffer) was added to the samples and the plates centrifuged at 3000×g, 4° C. for 5 min. Radioactive counts within the supernatant were then determined as described for competition binding assays.
# (§8) pIC50 values were determined from cAMP assays by fitting a sigmoidal concentration response curve using Prism 4.02.
# human CB1 receptor [4] = target: T2, human CB1 receptor; assay: cell-based
# Text: as §1, §2, §7, §8
# human CB2 receptor [5] = target: T1, human CB2 receptor; assay: Membrane [35S]GTPγS binding assay; type: biochemical; conditions: read-out: [35S]GTPγS Emax
# Protocol: Human CB2 expressing CHO-K1 membranes (5 μg per incubation mixture) were diluted in 50 mM Tris-HCl (pH 7.5) and 0.5 mM EDTA and added to HU compounds in a pre-mixed incubation cocktail. Final incubation concentrations were 55 mM Tris-HCl (pH 7.4), 1 mM EDTA, 100 mM NaCl, 5 mM MgCl2, 0.5% BSA, 50 μM GDP, 0.2 nM [^35S]GTPγS (PerkinElmer) with varied HU compound concentration and 5 μg membrane. Incubations were continued for 60 minutes at 30° C. in a shaking water bath. Assays were terminated by addition of 2 ml ice cold wash buffer (50 mM Tris-HCl, pH 7.5 and 5 mM MgCl2) and filtration through pre-soaked GF/C filters (Whatman), followed by two further washes. adioactivity was determined as described for competition binding assays.
# Data was analyzed using the Prism 4.02 programme (GraphPad Software, San Deigo, Calif., USA). IC50 and EC50 values, as determined from sigmoidal curves, were generated from drug concentrations plotted in log scale. […] It is possible to display data as an average, plus or minus the standard error of the mean in log form, however, this is not easily interpreted or compared to other values. It was therefore elected to calculate the 95% confidence interval for the mean value in log form and then convert the lower limit, mean and upper limit into the molar (linear) scale. […] Two-tailed t-tests for statistical analysis between enantiomeric pairs of compounds were performed for CB2 Ki values. The Pearson value, an indication of linearity, was determined for Ki and IC50 or EC50 results obtained for CB2 receptors in binding, cAMP or GTPγS experiments, respectively.
# [6] = CHO-CB2 cellular membranes, 2.5 nM [3H]-CP 55,940
# [7] = CHO-CB1 cellular membranes, 2.5 nM [3H]-CP 55,940, read-out: Competition Binding Assay CB1 Receptor Ki
# [8] = whole cells expressing CB2, 50 μM forskolin; read-out: cAMP Assay CB2 Receptor IC50
# [9] = whole cells expressing CB1, 50 μM forskolin, read-out: cAMP Assay CB1 Receptor IC50
# [10] = CHO, read-out: cAMP Assay CB2 Receptor Emax
# [11] = read-out: cAMP Assay CB2 Receptor IC50
Compound,Ki (human CB2 receptor [1]; [6]) [µM],Ki (human CB1 receptor [2]; [7]) [µM],IC50 (human CB2 receptor [3]; [8]) [µM],IC50 (human CB1 receptor [4]; [9]) [µM],Emax (human CB2 receptor [3]; [10]) [%],Ki (human CB2 receptor [1]) [µM],also measured
"CCCCCCC(C)(C)c1cc(OC)c(C2=C[C@@]3(C)CC[C@@H]2C3(C)C)c(OC)c1 [HU-918, (1R,4R)-3-(2,6-dimethoxy-4-(2-methyloctan-2-yl)phenyl)-1,7,7-trimethylbicyclo[2.2.1]hept-2-ene]",> 50,> 50,> 50,> 50,–,–,–
"CCCCCCC(C)(C)c1cc(OC)c([C@@H]2C=C(CO)[C@@H]3C[C@H]2C3(C)C)c(OC)c1 [HU-308, [(1R,2R,5R)-2-[2,6-dimethoxy-4-(2-methyloctan-2-yl)phenyl]-7,7-dimethyl-4-bicyclo[3.1.1]hept-3-enyl]methanol, reference compound]",–,–,–,–,100,–,Emax (human CB2 receptor [5]): 100%; Ki (human CB1 receptor [2]): > 50 µM; IC50 (human CB1 receptor [4]): > 50 µM
"CCCCCc1cc(OC)c(C2C(=O)[C@]3(C)CC[C@H]2C3(C)C)c(OC)c1 (stereo partly drawn) [HU-936, (1R,4R)-3-(2,6-dimethoxy-4-pentylphenyl)-1,7,7-trimethylbicyclo[2.2.1]heptan-2-one]",1.72,> 50,> 50,> 50,–,–,–
"CCCCCCC(C)(C)c1cc(OC)c(C2=C[C@]3(C)CC[C@H]2C3(C)C)c(OC)c1 [HU-917, (1S,4S)-3-(2,6-dimethoxy-4-(2-methyloctan-2-yl)phenyl)-1,7,7-trimethylbicyclo[2.2.1]hept-2-ene]",> 50,> 50,> 50,> 50,–,–,–
"CCCCCc1cc(OC)c(C2=C[C@@H]3CC[C@@]2(C(=O)OC)C3(C)C)c(OC)c1 [HU-971, (1R,4S)-methyl-2-(2,6-dimethoxy-4-pentylphenyl)-7,7-dimethylbicyclo[2.2.1]hept-2-ene-1-carboxylate]",–,> 50,–,> 50,31 ± 4,0.704,IC50 (human CB2 receptor [3]; [11]): 1.53 µM
"CCCCCc1cc(OC)c(C2=C[C@@H]3CC[C@@]2(CO)C3(C)C)c(OC)c1 [HU-969, (1R,4S)-(2-(2,6-dimethoxy-4-pentylphenyl)-7,7-dimethylbicyclo[2.2.1]hept-2-en-1-yl)methanol]",–,> 50,–,> 50,–,6.46,IC50 (human CB2 receptor [3]): > 50 µM
"CCCCCCC(C)(C)c1cc(O)c2c(c1)OC(C)(C)[C@@H]1CC=C(CO)C[C@@H]21 [HU-210, 1,1-Dimethylheptyl-11-hydroxy-tetrahydrocannabinol, reference compound]",–,–,–,–,–,–,Ki (human CB1 receptor [2]; read-out: Competition Binding Assay CB1 Receptor Ki): 0.00294 µM
"CCCCCc1cc(OC)c(C2=C[C@H]3CC[C@]2(CO)C3(C)C)c(OC)c1 [HU-970, (1S,4R)-(2-(2,6-dimethoxy-4-pentylphenyl)-7,7-dimethylbicyclo[2.2.1]hept-2-en-1-yl)methanol]",–,> 50,–,> 50,38 ± 2,1.27,IC50 (human CB2 receptor [3]; [11]): 1.15 µM
"CCCCCc1cc(OC)c(C2=C[C@H]3CC[C@]2(C(=O)OC)C3(C)C)c(OC)c1 [HU-972, (1S,4R)-methyl-2-(2,6-dimethoxy-4-pentylphenyl)-7,7-dimethylbicyclo[2.2.1]hept-2-ene-1-carboxylate]",–,> 50,–,> 50,48 ± 5,0.168,IC50 (human CB2 receptor [3]; [11]): 0.313 µM
"CCCCCCC(C)(C)c1cc(OC)c(C2=C[C@H]3CC[C@]2(C(=O)OC)C3(C)C)c(OC)c1 [HU-912, (1S,4R)-methyl-2-(2,6-dimethoxy-4-(2-methyloctan-2-yl)phenyl)-7,7-dimethylbicyclo[2.2.1]hept-2-ene-1-carboxylate]",0.0771,> 10,0.239,3.37,–,–,"Emax (human CB2 receptor [3]; CHO; read-out: cAMP Assay CB2 Receptor Emax): 107 ± 4%; Emax (human CB1 receptor [4]; CHO, percentage of maximal response of HU-210, mean ± SEM, read-out: cAMP Assay CB1 Receptor Emax): 112 ± 8%"
"CCCCCCC(C)(C)c1cc(OC)c(C2=C[C@H]3CC[C@]2(C)C3(C)C)c(OC)c1 [HU-907, (1R,4R)-2-(2,6-dimethoxy-4-(2-methyloctan-2-yl)phenyl)-1,7,7-trimethylbicyclo[2.2.1]hept-2-ene]",2.51,> 50,> 50,> 50,–,–,–
"CCCCCc1cc(OC)c(C2C(O)[C@]3(C)CC[C@H]2C3(C)C)c(OC)c1 (stereo partly drawn) [HU-938, (1R,4R)-3-(2,6-dimethoxy-4-pentylphenyl)-1,7,7-trimethylbicyclo[2.2.1]heptan-2-ol]",7.91,> 50,> 50,> 50,–,–,–
"CCCCCCC(C)(C)c1cc(OC)c(C2=C[C@@H]3CC[C@@]2(C)C3(C)C)c(OC)c1 [HU-908, (1S,4S)-2-(2,6-dimethoxy-4-(2-methyloctan-2-yl)phenyl)-1,7,7-trimethylbicyclo[2.2.1]hept-2-ene]",> 50,> 50,> 50,> 50,–,–,–
"CCCCCc1cc(OC)c(C2=C[C@H]3CC[C@]2(C(=O)O)C3(C)C)c(OC)c1 [HU-974, (1S,4R)-2-(2,6-dimethoxy-4-pentylphenyl)-7,7-dimethylbicyclo[2.2.1]hept-2-ene-1-carboxylic acid]",–,> 50,–,> 50,–,> 10,IC50 (human CB2 receptor [3]): > 50 µM
"CCCCCc1cc(OC)c(C2=C[C@@H]3CC[C@@]2(C(=O)O)C3(C)C)c(OC)c1 [HU-973, (1R,4S)-2-(2,6-dimethoxy-4-pentylphenyl)-7,7-dimethylbicyclo[2.2.1]hept-2-ene-1-carboxylic acid]",–,> 50,–,> 50,40 ± 6,1.15,IC50 (human CB2 receptor [3]; [11]): 2.09 µM
